Results on one molecule are retold here after patent US11504340B2, “Ocular compositions” (THE QUEEN'S UNIVERSITY OF BELFAST, priority 2017, dated 2022).

The data set can be described thus: Stability of dexamethasone in phosphate buffer for long term release. Format: physicochemical.

Turning to `C[C@@H]1C[C@H]2[C@@H]3CCC4=CC(=O)C=C[C@]4(C)[C@@]3(F)[C@@H](O)C[C@]2(C)[C@@]1(O)C(=O)CO` [dexamethasone], the “stability in phosphate buffer for long term release” value was “instability”.
